From paper PMC4911353, “Pharmacologic Inhibition of Host Phosphodiesterase-4 Improves Isoniazid-Mediated Clearance of Mycobacterium tuberculosis” (Frontiers in Immunology, 2016)
Where two headings read alike, the source gives them in different places.

Experiments:
lung granulomas = assay: Histology and morphometric measurement of lung granulomas in Mtb-infected mice; type: in vivo; details: 28 days postinfection (14 days of treatment), histology
Protocol: Formalin-fixed lung tissues of Mtb-infected mice were paraffin-embedded, cut into […] sections, and stained with hematoxylin and eosin (H&E) or acid fast staining by Ziehl–Neelsen (ZN) method to visualize host cells and Mtb, respectively (IDEXX-RADIL Laboratories Inc., MO, USA) as described in Ref. ([11]). Stained sections were photographed in a Nikon Microphot-FX photomicrographic system and analyzed with NIS-Elements F3.0 software (Nikon Instruments Inc., NY, USA). Lung granuloma size was morphometrically measured using PathScan Enabler IV scanner (Meyer Instruments, Houston, TX, USA) and SigmaScan Pro software (Systat Software, Inc., CA, USA). Histopathologic analysis and morphometry were performed by an experienced pathologist blinded to the sample identity.

[1] = Plasma pharmacokinetics of CC-11050 in mice after a single oral gavage (LC-MS/MS); type: in vivo; details: for Plasma concentration of CC-11050: mean ± SD
Protocol: The PDE4i, CC-11050 (N-[2-[(1S)-1-(3-ethoxy-4-methoxyphenyl)-2-(methylsulfonyl) ethyl]-2,3-dihydro-3-oxo-1H-isoindol-4-yl]-(9Cl) cyclopropanecarboxamide) has an empirical formula of C24H28N2O6S with one chiral center (Figure S1A in Supplementary Material). Uninfected mice (n = 3 per group) were treated with 5, 25, or 50 mg/kg of CC-11050 by oral gavage. In another experiment, mice (n = 3) were treated with 50 mg/kg of CC-11050 plus 50 mg/kg of INH. A group of mice (n = 3) without treatment were included as negative control. Venous blood was collected at 1, 2, 5, 8, and 24 h after a single gavage administration of CC-11050, with or without INH. Time-matched blood samples were also collected from untreated mice. The animals were gavaged after overnight fasting and fed soon after gavage. Plasma was collected by centrifugation of blood samples at 1,100× g for 10 min at 10°C and used for LC-MS/MS analysis.
The standard curve and quality control for CC-11050 were prepared in mouse plasma diluted 1:1 with Sorenson’s Citrate Buffer (25 mM; pH 1.5). Internal standard was prepared with ^13CD3-CC-11050 and mixed with the standard, quality control, or test samples at 4:1:1 (^13CD3-CC-11050:mouse plasma:Sorenson’s Citrate Buffer, vol/vol/vol) ratio. The mix was centrifuged at 4,000 rpm for 10 min at room temperature, and the supernatant was transferred to a 96-well assay plate. LC-MS/MS was performed using a Sciex API 4000 triple quadrupole mass spectrometer (Sciex, Division of MDS Inc., Canada) coupled to a Shimadzu HPLC system (Shimadzu Scientific Instruments, MD, USA). A Phenomenex Gemini column (5 μm, 2.0 mm × 50 mm; Phenomenex, CA, USA) was used for chromatography with 0.1% formic acid in water (mobile phase A) and 0.1% formic acid in acetonitrile (mobile phase B). The parameters used were 0 min for 10%B, 0.0–2.0 min for 10–75%B, 2.1–3.0 min for 95%B, and 3.05–4.0 min for 10%B. For mass spectrometric detection, a positive ion mode with turbo spray (ion source temperature of 450°C) and a dwell time of 100 ms was used. Analytes were quantified using multiple reactions monitoring (MRM) at the following transitions: mass-to-charge ratio 473.1–178.1 and 477.1–182.1 m/z for CC-11050 and its internal standard, respectively. Peak area ratios of the analyte to its internal standard versus analyte concentration, represented as quadratic regression plots, were derived with 1/x^2 weighting. Watson LIMS™ software was used to determine the pharmacokinetic parameters (Thermo Fisher, PA, USA). Peak plasma concentration (Cmax) and corresponding time (Tmax) were calculated from raw data. Area under the plasma concentration-time curve (AUC) was determined by linear/linear-log trapezoidal rule of non-compartmental model using data from time 0 and the last measurable time point (AUClast). All statistics were performed with Watson LIMS™ software. Plasma concentrations below the limit of quantitation (BLOQ) were treated as 0 for calculation.

Pde4 = assay: qPCR of host Pde4 gene expression in Mtb-infected mouse lungs; type: in vivo, mice; details: 14 days of treatment (28 days postinfection)
Protocol: Total lung RNA (200 ng) was reverse-transcribed using Sprint RT kit (Clontech, CA, USA); 10 ng of cDNA were used for quantitative real-time PCR (qPCR), with Brilliant II SYBR master mix (Agilent Technologies, CA, USA) and gene-specific primers in a Stratagene Mx3005P instrument (Agilent Technologies, CA, USA). ROX was included in each reaction as an internal control. The qPCR assay was performed using four mouse samples in duplicate per group; the data were analyzed using MxPro Software (Agilent Technologies, CA, USA). Transcript levels of Gapdh were used as a reference against the test genes. Fold change in gene expression was calculated using the formula 2^−ΔΔCt, where ΔCt is the difference in threshold cycle (Ct) between the target gene and Gapdh; and ΔΔCt is the […] between untreated and CC-11050-treated samples. Primers were designed based on nucleotide sequences obtained from PrimerBank.^3

[2] = set-up: method as in PMID 26981575; details: rabbits, cited from earlier work
[3] = single oral dose 50 mg/kg CC-11050 + 50 mg/kg INH
[4] = single oral dose 50 mg/kg CC-11050 only

Compound: CCOc1cc([C@@H](CS(C)(=O)=O)N2Cc3cccc(NC(=O)C4CC4)c3C2=O)ccc1OC [CC-11050, N-[2-[(1S)-1-(3-ethoxy-4-methoxyphenyl)-2-(methylsulfonyl)ethyl]-2,3-dihydro-3-oxo-1H-isoindol-4-yl]-(9Cl) cyclopropanecarboxamide]
- Impact on size and structure of lung lesions (lung granulomas): no significant impact
- AUClast ([1]; single oral dose 5 mg/kg): 1,080 ng × h/ml
- AUClast ([1]; single oral dose 25 mg/kg): 2,800 ng × h/ml
- AUClast [1, 3]: 13,900 ng × h/ml
- Cmax [1, 3]: 1,610 ng/ml
- Tmax [1, 3]: 5.0 h
- Plasma concentration of CC-11050 ([1]; single oral dose 50 mg/kg CC-11050 + 50 mg/kg INH, 1 h): 905.35 ± 594.23 ng/mL
- Plasma concentration of CC-11050 ([1]; single oral dose 50 mg/kg CC-11050 + 50 mg/kg INH, 2 h): 1,309.39 ± 214.08 ng/ml
- Plasma concentration of CC-11050 ([1]; single oral dose 50 mg/kg CC-11050 + 50 mg/kg INH, 5 h): 1,609.18 ± 167.2 ng/ml
- Plasma concentration of CC-11050 ([1]; single oral dose 50 mg/kg CC-11050 + 50 mg/kg INH, 8 h): 1,271.73 ± 249.18 ng/ml
- Plasma concentration of CC-11050 ([1]; single oral dose 50 mg/kg CC-11050 + 50 mg/kg INH, 24 h): 4.96 ± 1.85 ng/mL
- AUClast [1, 4]: 10,200 ng × h/ml
- Cmax [1, 4]: 1,410 ng/ml
- Tmax [1, 4]: 2.0 h
- Plasma concentration of CC-11050 ([1]; single oral dose 50 mg/kg CC-11050 only, 1 h): 1,331.6 ± 136.97 ng/ml
- Plasma concentration of CC-11050 ([1]; single oral dose 50 mg/kg CC-11050 only, 2 h): 1,409.47 ± 140.85 ng/ml
- Plasma concentration of CC-11050 ([1]; single oral dose 50 mg/kg CC-11050 only, 5 h): 948.85 ± 128.7 ng/mL
- Plasma concentration of CC-11050 ([1]; single oral dose 50 mg/kg CC-11050 only, 8 h): 820.6 ± 265.98 ng/mL
- Plasma concentration of CC-11050 ([1]; single oral dose 50 mg/kg CC-11050 only, 24 h): 1.27 ± 1.1 ng/mL
- Time to peak plasma concentration (Tmax) ([1]; single oral dose, each of three dose levels 5, 25, 50 mg/kg): 1 to 2 h
- Pde4A expression in lungs versus Mtb-infected untreated (Pde4): No significant change
- Pde4C expression in lungs versus Mtb-infected untreated (Pde4): No significant change
- Pde4D expression in lungs versus Mtb-infected untreated (Pde4; 50 mg/kg, P = 0.0037): significantly reduced
- Pde4Bi3 (Pde4B isoform 3) expression in lungs versus Mtb-infected untreated (Pde4; 50 mg/kg, P = 0.015): significantly reduced
- Cmax ([2]; 50 mg/kg): 0.163 µg/mL
- Tmax ([2]; 50 mg/kg): 4 h
- Effect of INH on the pharmacokinetics of CC-11050 [2]: no effects
